Patent US9585964B2, “Liver targeted conjugates” (President and Fellows of Harvard College, priority 2005, dated 2017)

System: hepatic injury induced by carbon tetrachloride (CCl4)
Assay: mouse model of hepatic injury induced by carbon tetrachloride (CCl4); serum ALT and AST
Type: in vivo
Conditions: ICR mice; for increase in serum ALT compared to the vehicle control / increase in serum AST compared to the vehicle control: CCl4
Protocol: An indomethacin-simvastatin conjugate (Ind-S) and lovastatin alone were evaluated for possible hepatoprotective activity in a mouse model of hepatic injury induced by carbon tetrachloride (CCl4). Ind-S at 0.5, 1 and 5 μmol/kg and lovastatin at 30 mg/kg were each administered intraperitoneally 0.5 hour before and at 4 and 8 hours after CCl4 challenge. The degree of hepatic injury was manifested by increases in alanine aminotransferase (ALT) and aspartate aminotransferase (AST) levels relative to the vehicle-treated animals. A decrease of 30% or more in serum ALT or AST is considered significant protective activity. The test substances were provided at the indicated concentrations. […] The test substances were administered intraperitoneally at 0.5 hour before and 4 and 8 hours after CCl4 administration to test mice. The dosing volume was 5 mL/kg. Male ICR derived mice weighing 24±2 g and provided by BioLasco Taiwan, a Charles River Laboratories Technology Licensee, were used in the study Space allocation for animals was 29×18×13 cm for 10 mice. The animals were housed in APEC^R cages. All animals were maintained in a hygienic environment under controlled temperature (22-24° C.) and humidity (60%-70%) with 12 hours light/dark cycles for at least one week prior to use with free access to standard lab chow (LabDiet Rodent Diet, PMI Nutrition International, USA) and tap water. Seven groups of five ICR derived male mice (weighing 24±2 g) were used. Each animal was challenged with a single dose of carbon tetrachloride (CCl4, 0.1 mL/kg in 50% olive oil, PO). The test substances were administered intraperitoneally at 30 minutes before and 4, 8 hours after carbon tetrachloride challenge and the animals were sacrificed 24 hours later. Serum alanine aminotransferase (ALT) and aspartate aminotransferase (AST) levels were measured by optimized UV method using a HITACHI automatic analyzer (model 7050). Silymarin (300 mg/kg, PO) as the positive control agent was administered orally to test animals at the same time.

SMILES: COc1ccc2c(c1)c(CC(=O)OCCNC(=O)CCC(C)(C)C(=O)O[C@H]1C[C@@H](C)C=C3C=C[C@H](C)[C@H](CC[C@@H]4C[C@@H](O)CC(=O)O4)[C@H]31)c(C)n2C(=O)c1ccc(Cl)cc1 [Ind-S, 6(R)-[2-[8(S)-{4-(2-{2-[1-(4-Chloro-benzoyl)-5-methoxy-2-methyl-1H-indol-3-yl]-acetoxy}-ethylcarbamoyl)-2,2-dimethyl-butyryloxy}-2(S),6(R)-dimethyl-1,2,6,7,8,8,a(R)-hexahydronaphthyl-1(S)]ethyl]-4(R)-hydroxy-3,4,5,6-tetrahydro-2H-Pyran-2-one]
- reduction in serum ALT level relative to the vehicle-treated group (5 μmol/kg IP, 0.5 h before and 4 and 8 h after CCl4, non-significant): 21%
- reduction of AST activity relative to the vehicle-treated group (5 μmol/kg IP, 0.5 h before and 4 and 8 h after CCl4, serum at 24 h): 34%

SMILES: CC[C@H](C)C(=O)O[C@H]1C[C@@H](C)C=C2C=C[C@H](C)[C@H](CC[C@@H]3C[C@@H](O)CC(=O)O3)[C@H]21 [Lovastatin]
- increase in serum ALT compared to the vehicle control (30 mg/kg IP): 17%
- increase in serum AST compared to the vehicle control (30 mg/kg IP): 38%

SMILES: COc1ccc2c(c1)c(CC(=O)O)c(C)n2C(=O)c1ccc(Cl)cc1 [indomethacin]
- increase in serum ALT compared to the vehicle control (5 μmol/kg IP): 39%
- increase in serum AST compared to the vehicle control (5 μmol/kg IP): 73%
